Experimental data reported in patent US20230089867A1, “CYCLIC PENTAMER COMPOUNDS AS PROPROTEIN CONVERTASE SUBTILISIN/KEXIN TYPE 9 (PCSK9) INHIBITORS FOR THE TREATMENT OF METABOLIC DISORDER” (Novartis AG, priority 2018, published 2023).

Molecular target: human PCSK9 (Homo sapiens, UniProt Q8NBP7)
Assay: PCSK9 ligand binding TR-FRET assay (interference with binding of human PCSK9 to human LDLR)
Conditions: for Max % inhibition: PCSK9 FRET assay, efficacy (Amax), 100% = 1 uM unlabeled human PCSK9, 0% = DMSO; for IC50: TR-FRET, human PCSK9 Alexa Fluor 647 / human LDLR extracellular domain-Europium Kryptate, read-out: PCSK9 FRET Assay IC50
Summary of the method: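 Threefold compound dilutions were pre-incubated 30 min with PCSK9, after which 4 nM Europium Kryptate-tagged human LDLR ectodomain was added for a further 2 h.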

Sequence of human PCSK9 (Q8NBP7 153-692): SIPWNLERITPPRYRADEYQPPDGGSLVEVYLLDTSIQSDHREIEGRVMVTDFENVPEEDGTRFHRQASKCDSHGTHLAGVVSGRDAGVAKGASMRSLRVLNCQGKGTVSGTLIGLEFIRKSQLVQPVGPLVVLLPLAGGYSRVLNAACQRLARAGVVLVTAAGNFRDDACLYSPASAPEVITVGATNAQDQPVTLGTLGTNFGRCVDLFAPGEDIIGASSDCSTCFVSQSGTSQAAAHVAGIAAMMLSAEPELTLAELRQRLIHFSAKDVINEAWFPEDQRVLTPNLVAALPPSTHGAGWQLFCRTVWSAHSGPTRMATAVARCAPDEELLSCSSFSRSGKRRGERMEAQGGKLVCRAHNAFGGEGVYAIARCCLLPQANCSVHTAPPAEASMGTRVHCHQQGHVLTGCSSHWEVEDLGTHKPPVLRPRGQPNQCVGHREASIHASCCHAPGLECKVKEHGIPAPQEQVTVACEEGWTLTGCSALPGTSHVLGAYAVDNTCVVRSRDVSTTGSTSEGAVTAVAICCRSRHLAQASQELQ
Sequence of human PCSK9 (Q8NBP7 31-152 partner limits assumed): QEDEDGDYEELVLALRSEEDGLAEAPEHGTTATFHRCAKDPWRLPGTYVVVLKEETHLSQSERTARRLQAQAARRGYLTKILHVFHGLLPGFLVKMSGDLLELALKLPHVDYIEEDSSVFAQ

Compound	Max % inhibition [%]	IC50 [nM]
COC[C@@H]1NC(=O)[C@H](CCC(=O)O)N(Cc2ccc(Cl)cc2Oc2ccc(-c3cnc(CN(C)C)n3C)cc2)C(=O)C[C@@H](Cc2ccccc2)C(=O)N(C)[C@H]2CCCC[C@@H]2NC(=O)C[C@H](Cc2ccc(Cl)cc2)N(C)C1=O [Compound 245, 3-((4S,7S,10S,14R,16aS,20aS)-14-benzyl-11-(4-chloro-2-(4-(2-((dimethylamino)methyl)-1-methyl-1H-imidazol-5-yl)phenoxy)benzyl)-4-(4-chlorobenzyl)-7-(methoxymethyl)-5,16-dimethyl-2,6,9,12,15-pentaoxodocosahydrobenzo[l][1,4,7,11,14]pentaazacyclooctadecin-10-yl)propanoic acid]	104.03	1.3
COC[C@@H]1NC(=O)[C@H](C)N(Cc2ccc(Cl)cc2Oc2ccc(-c3cnc(CN4CCCC4)n3C)cc2)C(=O)C[C@@H](Cc2ccccc2)C(=O)N(C)[C@@H]2CCOC[C@H]2NC(=O)C[C@H](Cc2ccc(Cl)cc2)N(C)C1=O [Compound 14, (4S,7S,10S,14R,16aR,20aS)-14-benzyl-11-(4-chloro-2-(4-(1-methyl-2-(pyrrolidin-1-ylmethyl)-1H-imidazol-5-yl)phenoxy)benzyl)-4-(4-chlorobenzyl)-7-(methoxymethyl)-5,10,16-trimethyltetradecahydro-1H-pyrano[3,4-l][1,4,7,11,14]pentaazacyclooctadecine-2,6,9,12,15(3H)-pentaone]	93.84	307
COC[C@@H]1NC(=O)[C@H](CCF)N(Cc2ccc(Cl)cc2Oc2ccc(-c3cnc(CN4CCCC4)n3C)cc2)C(=O)C[C@@H](Cc2ccccc2)C(=O)N(C)[C@@H](C)CNC(=O)C[C@H](Cc2ccc(Cl)cc2)N(C)C1=O [Compound 54, (2S,5S,8S,13S,16R)-16-benzyl-1-(4-chloro-2-(4-(1-methyl-2-(pyrrolidin-1-ylmethyl)-1H-imidazol-5-yl)phenoxy)benzyl)-8-(4-chlorobenzyl)-2-(2-fluoroethyl)-5-(methoxymethyl)-7,13,14-trimethyl-1,4,7,11,14-pentaazacyclooctadecane-3,6,10,15,18-pentaone]	92.54	4.6
COC[C@@H]1NC(=O)[C@H](C)N(Cc2ccc(Cl)cc2Oc2ccc(-n3cnc(CN(C)C)c3C)cc2)C(=O)C[C@@H](Cc2ccccc2)C(=O)N(C)[C@H]2CCCC[C@@H]2NC(=O)C[C@H](Cc2ccc(Cl)cc2)N(C)C1=O [Compound 292, (4S,7S,10S,14R,16aS,20aS)-14-benzyl-11-(4-chloro-2-(4-(4-((dimethylamino)methyl)-5-methyl-1H-imidazol-1-yl)phenoxy)benzyl)-4-(4-chlorobenzyl)-7-(methoxymethyl)-5,10,16-trimethylhexadecahydrobenzo[l][1,4,7,11,14]pentaazacyclooctadecine-2,6,9,12,15(3H)-pentaone]	113.30	3
COC[C@@H]1NC(=O)[C@H](C)N(Cc2ccc(Cl)cc2Oc2ccc(-c3cnc(CN(C)C)n3C)cc2)C(=O)CC(Cn2ccccc2=O)C(=O)N(C)[C@H]2CCCC[C@@H]2NC(=O)C[C@H](Cc2ccc(Cl)cc2)N(C)C1=O (stereo partly drawn) [Compound 275, (4S,7S,10S,16aS,20aS)-11-(4-chloro-2-(4-(2-((dimethylamino)methyl)-1-methyl-1H-imidazol-5-yl)phenoxy)benzyl)-4-(4-chlorobenzyl)-7-(methoxymethyl)-5,10,16-trimethyl-14-((2-oxopyridin-1(2H)-yl)methyl)hexadecahydrobenzo[l][1,4,7,11,14]pentaazacyclooctadecine-2,6,9,12,15(3H)-pentaone]	102.47	0.8
COC[C@@H]1NC(=O)[C@H](C)N(Cc2ccc(Cl)cc2Oc2ccc(-n3cc(CN4CCCC4)nn3)cc2)C(=O)C[C@@H](Cc2ccccc2)C(=O)N(C)[C@@H](C)CNC(=O)C[C@H](Cc2ccc(Cl)cc2)N(C)C1=O [Compound 127, (2S,5S,8S,13S,16R)-16-benzyl-1-(4-chloro-2-(4-(4-(pyrrolidin-1-ylmethyl)-1H-1,2,3-triazol-1-yl)phenoxy)benzyl)-8-(4-chlorobenzyl)-5-(methoxymethyl)-2,7,13,14-tetramethyl-1,4,7,11,14-pentaazacyclooctadecane-3,6,10,15,18-pentaone]	55.01	7.8
COC[C@@H]1NC(=O)[C@H](C)N(Cc2ccc(Cl)cc2Oc2ccc(-c3cnc(C4=CCOCC4)n3C)cc2)C(=O)C[C@@H](Cc2ccccc2)C(=O)N(C)[C@@H](C)CNC(=O)C[C@H](Cc2ccc(Cl)cc2)N(C)C1=O [Compound 271, (2S,5S,8S,13S,16R)-16-benzyl-1-(4-chloro-2-(4-(2-(3,6-dihydro-2H-pyran-4-yl)-1-methyl-1H-imidazol-5-yl)phenoxy)benzyl)-8-(4-chlorobenzyl)-5-(methoxymethyl)-2,7,13,14-tetramethyl-1,4,7,11,14-pentaazacyclooctadecane-3,6,10,15,18-pentaone]	84.13	6.9

More lines, now with the values ahead:

Max % inhibition [%]	IC50 [nM]	Compound
101.10	0.9	CC[C@H]1C(=O)N[C@@H](COC)C(=O)N(C)[C@@H](Cc2ccc(Cl)cc2)CC(=O)NC[C@H](C)N(C)C(=O)[C@H](Cc2ccccc2)CC(=O)N1Cc1ccc(Cl)cc1Oc1ccc(-c2cnc(CN(C)C)n2C)cc1 [Compound 70, (2S,5S,8S,13S,16R)-16-benzyl-1-(4-chloro-2-(4-(2-((dimethylamino)methyl)-1-methyl-1H-imidazol-5-yl)phenoxy)benzyl)-8-(4-chlorobenzyl)-2-ethyl-5-(methoxymethyl)-7,13,14-trimethyl-1,4,7,11,14-pentaazacyclooctadecane-3,6,10,15,18-pentaone]
103.43	9.3	COC[C@@H]1NC(=O)C(C)N(Cc2ccc(Cl)cc2Oc2ccc(-c3cnc(CN(C)C)n3C)cc2)C(=O)C[C@@H](Cc2ccccc2)C(=O)N(C)[C@H]2CCCC[C@@H]2NC(=O)C[C@H](Cc2ccc(Cl)cc2)N(C)C1=O (single isomer, unassigned) [Compound 58]
98.94	4.3	COC[C@@H]1NC(=O)[C@H](C)N(Cc2ccc(Cl)cc2Oc2ccc(-c3cnc(CN(C)C)n3C)cc2)C(=O)C[C@@H](Cc2c(F)ccc(F)c2F)C(=O)N(C)[C@@H](C)CNC(=O)C[C@H](Cc2ccc(Cl)cc2)N(C)C1=O [Compound 258, (2S,5S,8S,13S,16R)-1-(4-chloro-2-(4-(2-((dimethylamino)methyl)-1-methyl-1H-imidazol-5-yl)phenoxy)benzyl)-8-(4-chlorobenzyl)-5-(methoxymethyl)-2,7,13,14-tetramethyl-16-(2,3,6-trifluorobenzyl)-1,4,7,11,14-pentaazacyclooctadecane-3,6,10,15,18-pentaone]
104.20	1.6	COC[C@@H]1NC(=O)[C@H](C)N(Cc2ccc(Cl)cc2Oc2ccc(-c3cnc(CN(C)C)n3C)cc2)C(=O)C[C@@H](Cc2ccccc2C#N)C(=O)N(C)[C@@H](C)[C@H](C)NC(=O)C[C@H](Cc2ccc(Cl)cc2)N(C)C1=O [Compound 99, 2-(((2S,5S,8S,12S,13S,16R)-1-(4-chloro-2-(4-(2-((dimethylamino)methyl)-1-methyl-1H-imidazol-5-yl)phenoxy)benzyl)-8-(4-chlorobenzyl)-5-(methoxymethyl)-2,7,12,13,14-pentamethyl-3,6,10,15,18-pentaoxo-1,4,7,11,14-pentaazacyclooctadecan-16-yl)methyl)benzonitrile]
95.16	172	COC[C@@H]1NC(=O)[C@H](C)N(Cc2ccc(Cl)cc2Oc2ccc(-c3cnc(CN(C)C)n3C)cc2)C(=O)C[C@H](Cn2cccn2)C(=O)N(C)[C@H]2CCCC[C@@H]2NC(=O)C[C@H](Cc2ccc(Cl)cc2)N(C)C1=O [Compound 2, (4S,7S,10S,14R,16aS,20aS)-14-((1H-pyrazol-1-yl)methyl)-11-(4-chloro-2-(4-(2-((dimethylamino)methyl)-1-methyl-1H-imidazol-5-yl)phenoxy)benzyl)-4-(4-chlorobenzyl)-7-(methoxymethyl)-5,10,16-trimethylhexadecahydrobenzo[l][1,4,7,11,14]pentaazacyclooctadecine-2,6,9,12,15(3H)-pentaone]
104.05	4.2	COC[C@@H]1NC(=O)[C@H](C)N(Cc2ccc(OC(F)(F)F)cc2Oc2ccc(-c3cnc(CN(C)C)n3C)cc2)C(=O)C[C@@H](Cc2ccccc2)C(=O)N(C)[C@@H](C)CNC(=O)C[C@H](Cc2ccc(Cl)cc2)N(C)C1=O [Compound 35, (2S,5S,8S,13S,16R)-16-benzyl-8-(4-chlorobenzyl)-1-(2-(4-(2-((dimethylamino)methyl)-1-methyl-1H-imidazol-5-yl)phenoxy)-4-(trifluoromethoxy)benzyl)-5-(methoxymethyl)-2,7,13,14-tetramethyl-1,4,7,11,14-pentaazacyclooctadecane-3,6,10,15,18-pentaone]
85.21	59.8	CCCC#Cc1ncc(-c2ccc(Oc3cc(Cl)ccc3CN3C(=O)C[C@@H](Cc4ccccc4)C(=O)N(C)[C@@H](C)CNC(=O)C[C@H](Cc4ccc(Cl)cc4)N(C)C(=O)[C@H](COC)NC(=O)[C@@H]3C)cc2)n1C [Compound 30, (2S,5S,8S,13S,16R)-16-benzyl-1-(4-chloro-2-(4-(1-methyl-2-(pent-1-yn-1-yl)-1H-imidazol-5-yl)phenoxy)benzyl)-8-(4-chlorobenzyl)-5-(methoxymethyl)-2,7,13,14-tetramethyl-1,4,7,11,14-pentaazacyclooctadecane-3,6,10,15,18-pentaone]
